Marks after values point to notes of the source that are not given here.
Key:
[1] = biological target: T1, δ-opioid receptor (Rattus norvegicus, UniProt P33533); assay: Competitive receptor binding assay, synaptic membrane fraction, [3H]DPDPE; details: rat brain synaptic membrane, read-out: Affinity of receptor (Ki, nM) δ
T1 construct: synaptic membrane fraction obtained from the rat brain tissue; from tissue; host or cells: Sprague-Dawley rat brain without cerebellum, synaptic membrane (P2) fraction
Protocol: (§1) Regarding the opioid peptide derivatives synthesized in Examples and Reference Examples, the μ- and δ-opioid receptor affinities were obtained by a competitive receptor assay using the synaptic membrane fraction obtained from the rat brain tissue according to the known methods. That is, Sprague-Dawley rats having an average weight of 150-180 g were killed by decapitation, the brain tissue from which cerebellum had been removed was homogenized in 0.32M sucrose and 1 mM HEPES (pH 7.5) containing 50 μg/ml soybean trypsin inhibitor, fractionated and centrifuged to obtain the synaptic membrane fraction (P2 fraction), which was pre-incubated in 50 mM HEPES (pH 7.5) containing 100 mM NaCl, 0.1 mM GDP and soybean trypsin inhibitor to remove endogenous ligands from the P2 fraction.
(§2) A competitive receptor binding assay (Radiolabeled receptor assay: RRA) based on an exchange reaction between a radioactive ligand for the synaptic membrane fraction and a peptide derivative to be tested was performed by using tritium-labeled [^3H]DAGO which is a μ-opioid receptor agonist and tritium-labeled [^3H]DPDPE which has the high δ-opioid receptor selectivity, and incubating an aliquot of the synaptic membrane with the peptide derivative to be tested for a period of time. Upon this, an exchange reaction between a ligand was performed under constant conditions, the radiation remaining in the synaptic membrane fraction was measured, and an amount of the ligand adsorbed onto the synaptic membrane fraction is calculated. By assuming that binding with a receptor occurs in competition between a radioactive ligand and an end ligand, the concentration (IC50) at which the maximum specific binding of the radioactive ligand is 50% inhibited was obtained, from which the affinity constant (Ki) was calculated by a method of Cheng et al. (Biochem. Pharmcol., 22, 3099(1973)).

[2] = biological target: T2, μ-opioid receptor (Rattus norvegicus, UniProt P33535); assay: Competitive receptor binding assay, synaptic membrane fraction, [3H]DAGO; details: for Ki: rat brain synaptic membrane, [3H]DAGO, read-out: Affinity of receptor (Ki, nM) μ; for Selectivity δ/μ: ratio Ki δ / Ki μ
T2 construct: synaptic membrane fraction obtained from the rat brain tissue; from tissue; host or cells: Sprague-Dawley rat brain without cerebellum, synaptic membrane (P2) fraction
Protocol: as §1, §2

[3] = biological target: T3, δ-opioid receptor (Mus musculus, UniProt P32300); assay: Mouse seminiferous tract (MVD) assay, inhibition of electrically stimulated constriction; type: cell-based; details: agonist activity, read-out: MVD (IC50 ± S.E.)
T3 construct: using mouse seminiferous tract in place of guinea pig ileum; from tissue; host or cells: mouse seminiferous tract (vas deferens, MVD), organ bath

[4] = tested on: SD Male rats; assay: Analgesic effect, Randoll-Seritto hind limb pressure method, intracerebroventricular administration; type: in vivo; details: rat, i.c.v.
Description: SD Male rats, weighing 110 to 130 g, were used. One group consisted of five rats. The analgesic effects were examined by a Randoll-Seritto method. […] The threshold was expressed in mm Hg. During the measurement, the upper limit of the pressure applied to a hind limb was 100 mm Hg in order to avoid damage of the tissues.
1) When performing intracerebroventricular administration (i.c.v.), a rat was fixed to a brain stereotactic fixing apparatus under slight ether anesthesia, the skin at a head was dissected, and an administration cannula was inserted into a place at a transverse of […] from a bregma position and a depth of 3.5 to 4.0 mm. The administration volume was 10 μl/animal. Observation of the analgesic action was performed before administration, and at 30 minutes, and 1, 2, 3, 4 and 5 hours after administration. Doses of both compounds were 0.1, 1 and 10 μg/animal. Separately, a group to which 5 mg/kg of naltrexone hydrochloride was administered subcutaneously immediately after compound of Ex.1 10 μg/animal i.c.v and a group to which 5 mg/kg of naltrexone hydrochloride was administered subcutaneously immediately after compound of Ex.4 10 μg/animal i.c.v. was made. In addition, as morphine hydrochloride at a dose of 3 μg/animal i.c.v. group was used as a positive control group and a physiological saline 10 μl/animal i.c.v. group as a control group was made, respectively.
In order to perform a significant difference test between respective administration groups and control groups, and between values at respective times before administration and after administration, a Dunnet multiple comparative test method was used. In the statistical processing for performing a significant difference test between morphine hydrochloride administration groups and control groups, Student t-test was used. For performing a significant difference test between values at respective times before administration and after administration in morphine hydrochloride administration groups, a Dunnet multiple comparative test method was used. A significant level was at 5 or lower % risk rate (two-tailed test).

[5] = 0.1 μg/animal, before administration
[6] = 1 μg/animal, before administration
[7] = 10 μg/animal + Naltrexon 5 mg/kg s.c., 0.5 hr
[8] = 10 μg/animal + Naltrexon 5 mg/kg s.c., 1 hr
[9] = 10 μg/animal + Naltrexon 5 mg/kg s.c., 2 hr
[10] = 10 μg/animal + Naltrexon 5 mg/kg s.c., 3 hr
[11] = 10 μg/animal + Naltrexon 5 mg/kg s.c., 4 hr
[12] = 10 μg/animal + Naltrexon 5 mg/kg s.c., 5 hr
[13] = 10 μg/animal + Naltrexon 5 mg/kg s.c., before administration
[14] = 10 μg/animal followed by naltrexone 5 mg/kg s.c.
[15] = 10 μg/animal, before administration

T2 sequence (P33535 whole entry): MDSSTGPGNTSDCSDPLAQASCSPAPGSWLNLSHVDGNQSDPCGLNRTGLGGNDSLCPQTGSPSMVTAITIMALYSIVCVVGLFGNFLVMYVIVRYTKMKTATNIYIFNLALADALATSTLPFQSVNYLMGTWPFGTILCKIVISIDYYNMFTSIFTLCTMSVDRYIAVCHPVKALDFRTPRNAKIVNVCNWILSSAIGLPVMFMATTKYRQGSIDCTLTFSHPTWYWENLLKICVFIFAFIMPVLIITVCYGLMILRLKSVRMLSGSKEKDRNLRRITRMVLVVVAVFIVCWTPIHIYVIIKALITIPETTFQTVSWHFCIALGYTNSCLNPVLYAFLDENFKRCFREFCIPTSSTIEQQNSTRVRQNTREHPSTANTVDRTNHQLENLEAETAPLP
T1 sequence (P33533 whole entry): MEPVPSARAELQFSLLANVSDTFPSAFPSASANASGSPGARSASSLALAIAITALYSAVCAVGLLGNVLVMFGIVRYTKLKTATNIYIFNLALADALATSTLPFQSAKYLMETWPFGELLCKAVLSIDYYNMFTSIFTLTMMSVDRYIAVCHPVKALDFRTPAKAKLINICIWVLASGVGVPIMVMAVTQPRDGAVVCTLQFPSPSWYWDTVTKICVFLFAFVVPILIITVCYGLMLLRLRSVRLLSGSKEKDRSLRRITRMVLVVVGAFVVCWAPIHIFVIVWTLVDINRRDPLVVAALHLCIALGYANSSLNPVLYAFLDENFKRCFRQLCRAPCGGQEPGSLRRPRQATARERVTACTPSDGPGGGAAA
T3 sequence (P32300 whole entry): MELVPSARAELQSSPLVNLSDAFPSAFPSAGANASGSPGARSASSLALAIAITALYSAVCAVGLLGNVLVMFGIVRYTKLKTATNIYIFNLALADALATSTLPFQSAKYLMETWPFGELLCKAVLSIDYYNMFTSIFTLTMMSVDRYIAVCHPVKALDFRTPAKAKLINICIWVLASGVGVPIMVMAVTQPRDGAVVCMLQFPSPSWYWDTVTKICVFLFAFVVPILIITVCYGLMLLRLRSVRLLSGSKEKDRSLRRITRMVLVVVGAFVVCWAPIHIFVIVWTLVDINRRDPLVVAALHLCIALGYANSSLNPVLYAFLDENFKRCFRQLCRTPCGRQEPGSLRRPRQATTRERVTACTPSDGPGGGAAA

Row | SMILES | Ki [1] [nM] | Ki [2] [nM] | Selectivity δ/μ [2] | IC50 [3] [nM] | Threshold (mmHg) ([4]; 0.1 μg/animal, 0.5 hr) | Threshold (mmHg) ([4]; 0.1 μg/animal, 1 hr) | Threshold (mmHg) ([4]; 0.1 μg/animal, 2 hr) | Threshold (mmHg) ([4]; 0.1 μg/animal, 3 hr) | Threshold (mmHg) ([4]; 0.1 μg/animal, 4 hr) | Threshold (mmHg) ([4]; 0.1 μg/animal, 5 hr) | Threshold (mmHg) [4, 5] [mmHg] | Threshold (mmHg) ([4]; 1 μg/animal, 0.5 hr) | Threshold (mmHg) ([4]; 1 μg/animal, 1 hr) | Threshold (mmHg) ([4]; 1 μg/animal, 2 hr) | Threshold (mmHg) ([4]; 1 μg/animal, 3 hr) | Threshold (mmHg) ([4]; 1 μg/animal, 4 hr) | Threshold (mmHg) ([4]; 1 μg/animal, 5 hr) | Threshold (mmHg) [4, 6] [mmHg] | Change in escape reaction threshold / analgesic effect, in words ([4]; 10 μg/animal) | Threshold (mmHg) [4, 7] | other results
1 | Cc1cc(O)cc(C)c1C[C@H](N)C(=O)NCCCCCCNC(=O)[C@@H](N)Cc1c(C)cc(O)cc1C [Ex.4, 1,6-Bis(Dmt-amino)hexane.2HCl] | 46.1 ± 8.8 | 0.053 ± 0.01 | 870 | > 10000 | 47 ± 2 | 47 ± 1 | 50 ± 2 | 49 ± 2 | 49 ± 2 | 47 ± 1 | 45 ± 2 | 51 ± 2 | 51 ± 2 | 51 ± 3 | 50 ± 2 | 53 ± 2*^,$ mmHg | 52 ± 1*^,$ mmHg | 46 ± 1 | significant change in the threshold was not seen at any time after administration | 55 ± 2*^,$ mmHg | Change in escape reaction threshold / analgesic effect, in words ([4]; 1 μg/animal): significant increase in the threshold was seen 4 hours and 5 hours after administration; Threshold (mmHg) [4, 8]: 52 ± 2*^,$ mmHg; Threshold (mmHg) [4, 9]: 51 ± 2 mmHg; Threshold (mmHg) [4, 10]: 51 ± 1 mmHg; Threshold (mmHg) [4, 11]: 52 ± 1*^,$ mmHg; Threshold (mmHg) [4, 12]: 50 ± 1 mmHg; Threshold (mmHg) [4, 13]: 46 ± 1 mmHg; Change in escape reaction threshold / analgesic effect, in words [4, 14]: significant increase in the threshold was seen 30 minutes, 1 hour and 4 hours after administration; Threshold (mmHg) ([4]; 10 μg/animal, 0.5 hr): 50 ± 2 mmHg; Threshold (mmHg) ([4]; 10 μg/animal, 1 hr): 47 ± 0 mmHg; Threshold (mmHg) ([4]; 10 μg/animal, 2 hr): 49 ± 2 mmHg; Threshold (mmHg) ([4]; 10 μg/animal, 3 hr): 48 ± 2 mmHg; Threshold (mmHg) ([4]; 10 μg/animal, 4 hr): 48 ± 2 mmHg; Threshold (mmHg) ([4]; 10 μg/animal, 5 hr): 49 ± 1 mmHg; Threshold (mmHg) [4, 15]: 46 ± 1 mmHg
2 | Cc1cc(O)cc(C)c1C[C@H](N)C(=O)NCCCCNC(=O)[C@@H](N)Cc1c(C)cc(O)cc1C.Cl.Cl [Ex.1, 1,4-Bis-(Dmt-amino)butane.2HCl] | 53.4 ± 14.8 | 0.041 ± 0.003 | 1300 | > 10000 | 47 ± 1 | 50 ± 2 | 50 ± 1 | 48 ± 2 | 48 ± 1 | 49 ± 1 | 47 ± 1 | 51 ± 3 | 54 ± 3 | 49 ± 1 | 49 ± 2 | 48 ± 2 mmHg | 47 ± 1 mmHg | 47 ± 2 | significant increase in the threshold was seen in the 10 μg/administration group 30 minutes and 1 hour after administration | 49 ± 1 mmHg | Threshold (mmHg) [4, 8]: 53 ± 3 mmHg; Threshold (mmHg) [4, 9]: 54 ± 2 mmHg; Threshold (mmHg) [4, 10]: 52 ± 2 mmHg; Threshold (mmHg) [4, 11]: 49 ± 1 mmHg; Threshold (mmHg) [4, 12]: 50 ± 1 mmHg; Threshold (mmHg) [4, 13]: 47 ± 2 mmHg; Change in escape reaction threshold / analgesic effect, in words [4, 14]: dissipated by naltrexone 5 mg/kg subcutaneous administration; Threshold (mmHg) ([4]; 10 μg/animal, 0.5 hr): 61 ± 8*^,$ mmHg; Threshold (mmHg) ([4]; 10 μg/animal, 1 hr): 61 ± 5**^,$ mmHg; Threshold (mmHg) ([4]; 10 μg/animal, 2 hr): 54 ± 4 mmHg; Threshold (mmHg) ([4]; 10 μg/animal, 3 hr): 51 ± 3 mmHg; Threshold (mmHg) ([4]; 10 μg/animal, 4 hr): 52 ± 2 mmHg; Threshold (mmHg) ([4]; 10 μg/animal, 5 hr): 52 ± 1 mmHg; Threshold (mmHg) [4, 15]: 48 ± 2 mmHg

From patent US6838580B2, “Opioid derivative” (Teikoku Seiyaku Co., Ltd., priority 2002, dated 2005)
